Assay results: patent publication US20250313563A1, “GLYCOGEN SYNTHASE KINASE 3 INHIBITORS AND USES THEREOF” (The Broad Institute, Inc., priority 2022, published 2025)
pIC50: −log10 of the molar value. Like-named read-outs stand apart in the source and are kept apart here. Each block holds one molecule with its values, some of them ahead of it.

Tests used:
[1] = molecular target: GSK3b (GST-full length GSK3b) (Homo sapiens (Human), UniProt P49841); experiment: GSK3b TR-FRET kinase assay; format: biochemical
Procedure: (§1) TR-FRET Assay: The assay was performed in a white, 384 well, low volume, flat bottom plate (Grenier). After a 30 minute preincubation in assay buffer with the indicated concentration of compound, the kinase activity was initiated by the addition of the substrates. 1 nM GSK3α (GST-full length GSK3α [SignalChem G08-10G]) or 1 nM GSK3b (GST-full length GSK3b: [SignalChem G08-9G]) were then incubated at ambient temperature for 100 minutes in 10 μL of 50 mM Tris, pH 7.5, 20 mM MgCl2, 0.05 mM DTT, 100 μg/mL BSA and 1% DMSO, with 200 nM biotinylated peptide substrate (biotinylated and S645 phosphorylated glycogen synthase 631-650) and either 4 μM ATP (GSK3α, Table 16) or 2 μM ATP (GSK3b, Table 16) or 1 mM ATP (Table 17). The kinase activity was quenched with 2 μL of 250 mM EDTA. A 10 μL volume of 40 nM Strepavidin-d2, 2 nM Tb^2+-pSer641 antibody in TR-FRET Detection Buffer (Invitrogen) was then added. After 60 min at room temperature the plate was read on Envision plate reader using Ex: 340 nm, Em: 615 nm and […]. The normalized 665/615 Signal ratio versus log compound concentration was analyzed by XLFIT to yield IC50 values.

[2] = molecular target: GSK3α (GST-full length GSK3α) (Homo sapiens (Human), UniProt P49840); experiment: GSK3α TR-FRET kinase assay; format: biochemical
Procedure: as §1

[3] = 1 nM GSK3b, 2 μM ATP, 30 minute preincubation, geometric mean, read-out: GSK3-B TR-FRET BIOCHEMICAL (TR-FRET), GMean, IC50
[4] = 1 nM GSK3α, 4 μM ATP, 30 minute preincubation, geometric mean, read-out: GSK3-A TR-FRET BIOCHEMICAL (TR-FRET), GMean, IC50
[5] = 1 nM GSK3b, 2 μM ATP, 30 minute preincubation, Table 16, read-out: GSK3-B TR-FRET BIOCHEMICAL (TR-FRET), IC50
[6] = 1 nM GSK3α, 4 μM ATP, 30 minute preincubation, Table 16, read-out: GSK3-A TR-FRET BIOCHEMICAL (TR-FRET), IC50
[7] = GSK3-B (TR-FRET 1 mM ATP), GMean, IC50, 1 mM ATP, geometric mean
[8] = GSK3-A (TR-FRET 1 mM ATP), GMean, IC50, 1 mM ATP, geometric mean
[9] = 1 nM GSK3b, 2 μM ATP, 30 minute preincubation, Table 16, read-out: GSK3-B TR-FRET BIOCHEMICAL (TR-FRET)
[10] = 1 nM GSK3α, 4 μM ATP, 30 minute preincubation, Table 16, read-out: GSK3-A TR-FRET BIOCHEMICAL (TR-FRET)
[11] = read-out: GSK3-B (TR-FRET 1 mM ATP), GMean, IC50, 1 mM ATP, geometric mean
[12] = read-out: GSK3-A (TR-FRET 1 mM ATP), GMean, IC50, 1 mM ATP, geometric mean
[13] = 1 nM GSK3b, 2 μM ATP, 30 minute preincubation, read-out: GSK3-B TR-FRET BIOCHEMICAL (TR-FRET), IC50

Chain of GSK3α (GST-full length GSK3α) (P49840 whole entry): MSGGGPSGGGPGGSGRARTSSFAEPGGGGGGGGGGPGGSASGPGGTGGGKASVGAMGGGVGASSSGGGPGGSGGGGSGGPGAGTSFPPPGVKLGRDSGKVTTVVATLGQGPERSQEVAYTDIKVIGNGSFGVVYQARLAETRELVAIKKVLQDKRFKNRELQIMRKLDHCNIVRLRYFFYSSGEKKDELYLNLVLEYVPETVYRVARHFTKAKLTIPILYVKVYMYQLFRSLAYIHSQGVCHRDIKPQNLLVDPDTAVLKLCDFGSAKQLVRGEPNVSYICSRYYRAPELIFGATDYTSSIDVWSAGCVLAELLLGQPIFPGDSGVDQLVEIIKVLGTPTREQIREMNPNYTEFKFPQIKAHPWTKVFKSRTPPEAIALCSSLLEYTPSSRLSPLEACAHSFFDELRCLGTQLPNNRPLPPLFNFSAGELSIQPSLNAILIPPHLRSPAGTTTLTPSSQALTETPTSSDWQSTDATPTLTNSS
Chain of GSK3b (GST-full length GSK3b) (P49841 whole entry): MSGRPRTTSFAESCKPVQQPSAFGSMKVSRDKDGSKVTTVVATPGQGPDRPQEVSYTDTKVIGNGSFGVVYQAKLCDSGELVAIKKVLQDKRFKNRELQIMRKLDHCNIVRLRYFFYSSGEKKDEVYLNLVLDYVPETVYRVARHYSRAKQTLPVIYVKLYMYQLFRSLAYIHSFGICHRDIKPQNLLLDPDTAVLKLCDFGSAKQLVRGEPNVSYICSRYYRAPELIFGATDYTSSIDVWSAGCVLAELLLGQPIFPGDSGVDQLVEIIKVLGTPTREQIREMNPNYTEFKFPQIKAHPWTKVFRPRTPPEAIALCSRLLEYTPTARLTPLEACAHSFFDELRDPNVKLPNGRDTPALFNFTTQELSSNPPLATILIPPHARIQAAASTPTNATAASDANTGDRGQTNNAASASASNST

SMILES: CCC1(c2cccc(C(F)(F)F)c2)C2=C(CC(C)CC2=O)Nc2n[nH]cc21 (mixture of isomers) [Compound 801397]
pIC50 [1, 3]: 6.00 to 7.00
pIC50 [2, 4]: ≥ 7.00

SMILES: CCC1(c2cccc(Br)c2)C2=C(CC(C)(C)C(F)C2=O)Nc2n[nH]cc21 (mixture of isomers) [Compound 826764]
pIC50 [1, 3]: 6.00 to 7.00
pIC50 [2, 4]: ≥ 7.00

SMILES: CCC1(c2cccc(-c3ccncc3C)c2)C2=C(CC(C)(COC)NC2=O)Nc2n[nH]cc21 (mixture of isomers) [Compound 948127]
pIC50 [1, 3]: < 5.30
pIC50 [2, 4]: 6.00 to 7.00

SMILES: CCC1(c2cccc(C(F)(F)F)c2)C2=C(Nc3n[nH]cc31)C(F)C(C)(C)CC2=O (single isomer, unassigned) [Compound 837683, 4-ethyl-8-fluoro-7,7-dimethyl-4-(3-(trifluoromethyl)phenyl)-2,4,6,7,8,9-hexahydro-5H-pyrazolo[3,4-b]quinolin-5-one]
pIC50 [1, 3]: 6.00 to 7.00
pIC50 [1, 7]: < 5.30
pIC50 [2, 4]: ≥ 7.00
pIC50 [2, 8]: 6.00 to 7.00

SMILES: CCC1(c2cccc(C(F)(F)F)c2)C2=C(Nc3n[nH]cc31)C(F)C(C)(C)CC2=O (single isomer, unassigned) [Compound 837753, 4-ethyl-8-fluoro-7,7-dimethyl-4-(3-(trifluoromethyl)phenyl)-2,4,6,7,8,9-hexahydro-5H-pyrazolo[3,4-b]quinolin-5-one]
pIC50 [1, 3]: < 5.30
pIC50 [1, 7]: < 5.30
pIC50 [2, 4]: 6.00 to 7.00
pIC50 [2, 8]: < 5.30

SMILES: CCC1(c2cccc(C(F)(F)F)c2)C2=C(Nc3n[nH]cc31)C(F)C(C)(C)CC2=O (single isomer, unassigned) [Compound 837803, 4-ethyl-8-fluoro-7,7-dimethyl-4-(3-(trifluoromethyl)phenyl)-2,4,6,7,8,9-hexahydro-5H-pyrazolo[3,4-b]quinolin-5-one]
pIC50 [1, 3]: < 5.30
pIC50 [1, 7]: < 5.30
pIC50 [2, 4]: 5.30 to 6.00
pIC50 [2, 8]: < 5.30

SMILES: CCC1(c2cccc(-c3cn(C)nc3C)c2)C2=C(Nc3n[nH]cc31)C(F)C(C)(C)CC2=O (single isomer, unassigned) [Compound 947650, 4-(3-(1,3-dimethyl-1H-pyrazol-4-yl)phenyl)-4-ethyl-8-fluoro-7,7-dimethyl-2,4,6,7,8,9-hexahydro-5H-pyrazolo[3,4-b]quinolin-5-one]
pIC50 [1, 9]: ≥ 7.00
pIC50 [1, 7]: < 5.30
pIC50 [2, 10]: ≥ 7.00
pIC50 [2, 8]: 6.00 to 7.00

SMILES: CCC1(c2cccc(-c3cn(C)nc3C)c2)C2=C(Nc3n[nH]cc31)C(F)C(C)(C)CC2=O (single isomer, unassigned) [Compound 947652, 4-(3-(1,3-dimethyl-1H-pyrazol-4-yl)phenyl)-4-ethyl-8-fluoro-7,7-dimethyl-2,4,6,7,8,9-hexahydro-5H-pyrazolo[3,4-b]quinolin-5-one]
pIC50 [1, 9]: 6.00 to 7.00
pIC50 [1, 7]: < 5.30
pIC50 [2, 10]: ≥ 7.00
pIC50 [2, 8]: 6.00 to 7.00

SMILES: CCC1(c2cccc(-c3cn(C)nc3C)c2)C2=C(Nc3n[nH]cc31)C(F)C(C)(C)CC2=O (single isomer, unassigned) [Compound 947653, 4-(3-(1,3-dimethyl-1H-pyrazol-4-yl)phenyl)-4-ethyl-8-fluoro-7,7-dimethyl-2,4,6,7,8,9-hexahydro-5H-pyrazolo[3,4-b]quinolin-5-one]
pIC50 [1, 9]: 6.00 to 7.00
pIC50 [2, 10]: ≥ 7.00

SMILES: CC1(C)CC(=O)C2=C(C1)Nc1n[nH]cc1[C@]21CO[C@@H](C2CC2)C1 (stereo in doubt) [Compound 913185]
pIC50 [1, 9]: 5.30 to 6.00
pIC50 [2, 10]: 6.00 to 7.00

SMILES: CC1(C)CC2=C(C(=O)N1)[C@](C)(c1cccc(S(C)(=O)=O)c1)c1c(n[nH]c1C1CC1)N2 [Compound 114744]
pIC50 [1, 7]: < 5.30
pIC50 [2, 8]: < 5.30

SMILES: CN1CC2(C3=C(CC(C)(C)CC3=O)Nc3n[nH]c(C4CC(F)(F)C4)c32)c2ccccc21 (centres unmarked) [Compound 119047]
pIC50 [1, 11]: 6.00 to 7.00
pIC50 [2, 12]: 5.30 to 6.00

SMILES: CCC1(c2cccc(-c3ccncn3)c2)C2=C(CC(C)(C)CC2=O)Nc2n[nH]cc21 (centres unmarked) [Compound 810488]
pIC50 [1, 3]: 6.00 to 7.00

SMILES: CCC1(c2cccc(C(F)(F)F)c2)C2=C(CC(C)NC2=O)Nc2n[nH]cc21 (centres unmarked) [Compound 912096]
pIC50 [1, 13]: 6.00 to 7.00

SMILES: CCC1(c2cccc(C(F)(F)F)c2)C2=C(Nc3n[nH]cc31)C(C)N(C)C2=O (centres unmarked) [Compound 913454]
pIC50 [1, 9]: 6.00 to 7.00

SMILES: CC[C@@]1(c2cccc(C(F)(F)F)c2)C2=C(Nc3n[nH]cc31)[C@H](C)N(C)C2=O [Compound 913473]
pIC50 [1, 9]: 6.00 to 7.00

SMILES: CCC1(c2cccc(-c3cnn(C)c3)c2)C2=C(CC(C)(C)NC2=O)Nc2n[nH]c(C)c21 (centres unmarked) [Compound 944027]
pIC50 [1, 13]: 6.00 to 7.00

SMILES: CCC1(c2cccc(-c3ncnn3C)c2)C2=C(CC(C)(C)CC2=O)Nc2n[nH]cc21 (centres unmarked) [Compound 945472]
pIC50 [1, 9]: 6.00 to 7.00

SMILES: CCC1(c2cccc(N(C)c3cc(C)ccn3)c2)C2=C(CC(C)(C)CC2=O)Nc2n[nH]cc21 (centres unmarked) [Compound 945609]
pIC50 [1, 9]: 6.00 to 7.00

SMILES: CCC1(c2cccc(-c3c(C)nnn3C)c2)C2=C(CC(C)(C)CC2=O)Nc2n[nH]cc21 (centres unmarked) [Compound 946099]
pIC50 [1, 11]: 6.00 to 7.00

SMILES: CCC1(c2cccc(N3CCCCC3)c2)C2=C(CC(C)(C)NC2=O)Nc2n[nH]c(C(F)(F)F)c21 (centres unmarked) [Compound 947861]
pIC50 [1, 11]: 6.00 to 7.00

SMILES: CCC1(c2cccc(C(F)(F)F)c2)C2=C(CCN(c3cccc(C)c3)C2=O)Nc2n[nH]cc21 (centres unmarked) [Compound 948052]
pIC50 [1, 3]: 6.00 to 7.00

Next, values leading:

pIC50 [1, 5]: 6.00 to 7.00
pIC50 [2, 6]: 6.00 to 7.00
SMILES: CCC1(c2cccc(N3CCCC3C)c2)C2=C(CC(C)(C)CC2=O)Nc2n[nH]cc21 (mixture of isomers) [Compound 885188]

pIC50 [1, 5]: 6.00 to 7.00
pIC50 [2, 6]: 6.00 to 7.00
SMILES: CCC1(c2cccc(N3CCCCC3C)c2)C2=C(CC(C)(C)CC2=O)Nc2n[nH]cc21 (mixture of isomers) [Compound 885217]

pIC50 [1, 11]: < 5.30
pIC50 [2, 12]: < 5.30
SMILES: CC(C)(C)Cc1[nH]nc2c1C1(CN(C(=O)OCc3ccccc3)C1)C1=C(CC(C)(C)CC1=O)N2 [Compound 90330]

pIC50 [1, 11]: < 5.30
pIC50 [2, 12]: < 5.30
SMILES: CC(C)(C)Cc1[nH]nc2c1C1(CCN(c3ccccc3)CC1)C1=C(CC(C)(C)CC1=O)N2 [Compound 92315]

pIC50 [1, 11]: < 5.30
pIC50 [2, 12]: < 5.30
SMILES: CC(C)(C)Cc1[nH]nc2c1[C@@](C)(c1cccc(S(=O)(=O)CC3CC3)c1)C1=C(CC(C)(C)NC1=O)N2 [Compound 108006]

pIC50 [1, 11]: 6.00 to 7.00
pIC50 [2, 12]: 5.30 to 6.00
SMILES: CC(C)(C)Cc1[nH]nc2c1C(C)(c1cccc(S(=O)(=O)N3CCCC3)c1)C1=C(CC(C)(C)NC1=O)N2 (centres unmarked) [Compound 108791]

pIC50 [1, 11]: < 5.30
pIC50 [2, 12]: < 5.30
SMILES: CC(C)(C)Cc1[nH]nc2c1[C@@](C)(c1cccc(S(=O)(=O)N3CCCC3)c1)C1=C(CC(C)(C)NC1=O)N2 [Compound 108794]

pIC50 [1, 11]: 5.30 to 6.00
pIC50 [2, 12]: < 5.30
SMILES: COc1cncc(F)c1-c1cccc([C@@]2(C)C3=C(CC(C)(C)CC3=O)Nc3n[nH]c(CC(C)(C)C)c32)c1 [Compound 108956]

pIC50 [1, 11]: 6.00 to 7.00
pIC50 [2, 12]: 5.30 to 6.00
SMILES: CC(C)(C)Cc1[nH]nc2c1C1(COc3ccccc31)C1=C(CC(C)(C)CC1=O)N2 (centres unmarked) [Compound 117093]

pIC50 [1, 11]: < 5.30
SMILES: CC(C)(C)Cc1[nH]nc2c1C(C)(c1cc(S(C)(=O)=O)ccc1F)C1=C(CC(C)(C)CC1=O)N2 (centres unmarked) [Compound 125977]

pIC50 [1, 11]: 5.30 to 6.00
pIC50 [2, 12]: < 5.30
SMILES: CN1CC2(C3=C(CC(C)(C)CC3=O)Nc3n[nH]c(CC(C)(C)C)c32)c2ccccc21 (centres unmarked) [Compound 125979]

pIC50 [1, 11]: < 5.30
SMILES: CN(C)S(=O)(=O)c1cccc(C2(C)C3=C(CC(C)(C)CC3=O)Nc3n[nH]c(CC(C)(C)C)c32)c1 (centres unmarked) [Compound 126013]

pIC50 [1, 11]: < 5.30
SMILES: C[S+]([O-])c1cccc(C2(C)C3=C(CC(C)(C)CC3=O)Nc3n[nH]c(CC(C)(C)C)c32)c1 (centres unmarked) [Compound 126193]

pIC50 [2, 12]: < 5.30
SMILES: Cn1cc(-c2cccc(C3(C)C4=C(CC(C)(C)CC4=O)Nc4n[nH]c(CC(C)(C)C)c43)c2)cn1 (centres unmarked) [Compound 126394]

pIC50 [1, 11]: < 5.30
SMILES: Cc1ccc(S(C)(=O)=O)cc1C1(C)C2=C(CC(C)(C)CC2=O)Nc2n[nH]c(CC(C)(C)C)c21 (centres unmarked) [Compound 126398]

pIC50 [1, 11]: < 5.30
SMILES: CC(C)(C)Cc1[nH]nc2c1C(C)(c1cccc(N3CCOCC3)c1)C1=C(CC(C)(C)CC1=O)N2 (centres unmarked) [Compound 126399]

pIC50 [1, 3]: 6.00 to 7.00
SMILES: CCC1(c2cccc(C3CCOCC3)c2)C2=C(CC(C)(C)CC2=O)Nc2n[nH]cc21 (centres unmarked) [Compound 791273]
